Assay results taken from ChEMBL document CHEMBL1149784, “Discovery of a new anilino-3H-pyrrolo[3,2-f]quinoline derivative as potential anti-cancer agent” (Eur J Med Chem, 2008).
The source made the active and inactive calls. No cut-off for these calls is given here.

Experiments:
OVCAR-3 [1] = assay: Cell cycle arrest in human OVCAR-3 cells assessed as accumulation at G2/M phase at 1 uM by flow cytometry; assay type: functional
OVCAR-3 [2] = assay: Cell cycle arrest in human OVCAR-3 cells assessed as accumulation at S phase at 1 uM by flow cytometry; assay type: functional
OVCAR-3 [3] = assay: Cell cycle arrest in human OVCAR-3 cells assessed as accumulation at subG0 phase at 1 uM by flow cytometry; assay type: functional
OVCAR-3 [4] = assay: Cell cycle arrest in human OVCAR-3 cells assessed as accumulation at G0/G1 phase at 1 uM by flow cytometry; assay type: functional
OVCAR-3 [5] = assay: Cell cycle arrest in human OVCAR-3 cells assessed as accumulation at G0/G1 phase at 10 uM by flow cytometry; assay type: functional
OVCAR-3 [6] = assay: Cell cycle arrest in human OVCAR-3 cells assessed as accumulation at G2/M phase at 10 uM by flow cytometry; assay type: functional
OVCAR-3 [7] = assay: Cell cycle arrest in human OVCAR-3 cells assessed as accumulation at S phase at 5 uM by flow cytometry; assay type: functional
HeLa = assay: Growth inhibition of human HeLa cells after 72 hrs by trypan blue assay; assay type: functional, cell-based
OVCAR-3 [8] = assay: Cell cycle arrest in human OVCAR-3 cells assessed as accumulation at subG0 phase at 10 uM by flow cytometry; assay type: functional
[9] = Growth inhibition of human JR8 cells after 72 hrs by trypan blue assay; assay type: functional, cell-based; details: JR8, 72 h
OVCAR-3 [10] = assay: Cell cycle arrest in human OVCAR-3 cells assessed as accumulation at G2/M phase at 5 uM by flow cytometry; assay type: functional
[11] = biological target: DNA topoisomerase 2-alpha (Homo sapiens) (UniProt P11388); assay: Inhibition of human recombinant topoisomerase 2 assessed as relaxation of supercoiled pBR322 DNA
Sequence of DNA topoisomerase 2-alpha (Homo sapiens) (P11388 whole entry): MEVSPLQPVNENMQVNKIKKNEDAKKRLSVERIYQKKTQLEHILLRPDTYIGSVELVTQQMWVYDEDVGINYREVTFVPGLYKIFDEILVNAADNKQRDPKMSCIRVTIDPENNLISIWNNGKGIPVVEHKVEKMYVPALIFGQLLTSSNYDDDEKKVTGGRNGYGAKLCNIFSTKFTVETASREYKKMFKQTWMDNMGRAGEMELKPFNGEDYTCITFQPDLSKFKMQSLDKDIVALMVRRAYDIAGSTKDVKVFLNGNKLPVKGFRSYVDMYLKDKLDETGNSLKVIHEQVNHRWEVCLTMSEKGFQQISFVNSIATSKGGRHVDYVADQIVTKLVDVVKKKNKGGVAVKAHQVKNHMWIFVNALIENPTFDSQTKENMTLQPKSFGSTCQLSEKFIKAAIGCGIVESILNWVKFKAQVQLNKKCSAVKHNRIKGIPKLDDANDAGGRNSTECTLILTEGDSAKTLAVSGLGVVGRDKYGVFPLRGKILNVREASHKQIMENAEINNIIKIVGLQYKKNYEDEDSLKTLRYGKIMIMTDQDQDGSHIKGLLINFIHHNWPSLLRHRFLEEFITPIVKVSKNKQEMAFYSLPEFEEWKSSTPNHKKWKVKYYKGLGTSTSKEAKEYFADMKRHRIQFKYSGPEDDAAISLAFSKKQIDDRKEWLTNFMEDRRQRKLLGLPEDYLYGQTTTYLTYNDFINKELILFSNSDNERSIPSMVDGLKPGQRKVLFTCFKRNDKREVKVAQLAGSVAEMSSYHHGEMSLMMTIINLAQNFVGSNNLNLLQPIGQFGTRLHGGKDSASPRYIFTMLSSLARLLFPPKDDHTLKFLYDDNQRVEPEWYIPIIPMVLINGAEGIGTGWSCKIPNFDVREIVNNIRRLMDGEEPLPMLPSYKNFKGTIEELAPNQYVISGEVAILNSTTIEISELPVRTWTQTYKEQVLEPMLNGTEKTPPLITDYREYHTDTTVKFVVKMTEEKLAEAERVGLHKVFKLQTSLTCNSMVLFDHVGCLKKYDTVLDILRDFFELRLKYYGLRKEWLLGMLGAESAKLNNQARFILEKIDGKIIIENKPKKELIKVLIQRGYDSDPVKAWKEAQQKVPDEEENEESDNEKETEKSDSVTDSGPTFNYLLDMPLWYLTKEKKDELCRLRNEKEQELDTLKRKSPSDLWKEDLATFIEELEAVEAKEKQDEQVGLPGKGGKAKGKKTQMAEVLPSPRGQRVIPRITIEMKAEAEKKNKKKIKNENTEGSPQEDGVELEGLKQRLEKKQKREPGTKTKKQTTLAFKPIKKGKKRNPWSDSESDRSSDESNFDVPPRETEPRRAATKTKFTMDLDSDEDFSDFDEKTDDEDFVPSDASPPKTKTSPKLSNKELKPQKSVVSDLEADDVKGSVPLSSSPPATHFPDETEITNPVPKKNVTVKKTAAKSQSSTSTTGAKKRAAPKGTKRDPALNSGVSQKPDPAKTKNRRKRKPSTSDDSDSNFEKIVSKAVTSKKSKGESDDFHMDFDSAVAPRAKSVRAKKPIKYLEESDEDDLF

OVCAR-3 [12] = assay: Growth inhibition of human OVCAR-3 cells after 72 hrs by trypan blue assay; assay type: functional, cell-based; details: OVCAR-3, 72 h
OVCAR-3 [13] = assay: Cell cycle arrest in human OVCAR-3 cells assessed as accumulation at S phase at 10 uM by flow cytometry; assay type: functional
Salmonidae = assay: Binding affinity to Salmon testes DNA assessed as drug-DNA complex formation by linear flow dichroism method
HL-60 = assay: Growth inhibition of human HL60 cells after 72 hrs by trypan blue assay; assay type: functional, cell-based; details: HL-60, 72 h
OVCAR-3 [14] = assay: Cell cycle arrest in human OVCAR-3 cells assessed as accumulation at G0/G1 phase at 5 uM by flow cytometry; assay type: functional
OVCAR-3 [15] = assay: Cell cycle arrest in human OVCAR-3 cells assessed as accumulation at subG0 phase at 5 uM by flow cytometry; assay type: functional
OVCAR-3 [16] = assay: Cell cycle arrest in human OVCAR-3 cells assessed as accumulation at G2/M phase at 16 uM by flow cytometry; assay type: functional
OVCAR-3 [17] = assay: Cell cycle arrest in human OVCAR-3 cells assessed as accumulation at G0/G1 phase at 16 uM by flow cytometry; assay type: functional
OVCAR-3 [18] = assay: Cell cycle arrest in human OVCAR-3 cells assessed as accumulation at subG0 phase at 16 uM by flow cytometry; assay type: functional
OVCAR-3 [19] = assay: Cell cycle arrest in human OVCAR-3 cells assessed as accumulation at S phase at 16 uM by flow cytometry; assay type: functional

CC[C@]1(O)C[C@H]2CN(CCc3c([nH]c4ccccc34)[C@@](C(=O)OC)(c3cc4c(cc3OC)N(C=O)[C@H]3[C@@](O)(C(=O)OC)[C@H](OC(C)=O)[C@]5(CC)C=CCN6CC[C@]43[C@@H]65)C2)C1 [VINCRISTINE]
Activity (OVCAR-3 [1]): 45.2% | Activity (OVCAR-3 [2]): 7.9% | Activity (OVCAR-3 [3]): 0.5% | Activity (OVCAR-3 [4]): 46.8%

CC(=O)c1ccc(Nc2ccnc3ccc4[nH]ccc4c23)cc1.Cl
Activity (OVCAR-3 [5]): 24.5% | Activity (OVCAR-3 [6]): 63.7% | Activity (OVCAR-3 [7]): 13.6% | IC50 (HeLa): 3400 nM | Activity (OVCAR-3 [1]): 31.4% | Activity (OVCAR-3 [8]): 0.5% | IC50 [9]: 590 nM | Activity (OVCAR-3 [2]): 9.4% | Activity (OVCAR-3 [10]): 57.8% | Activity [11]: Dose-dependent effect | IC50 (OVCAR-3 [12]): 530 nM | Activity (OVCAR-3 [3]): 7.6% | Activity (OVCAR-3 [13]): 11.6% | Activity (OVCAR-3 [4]): 51.9% | Activity (Salmonidae): Active | IC50 (HL-60): 500 nM | Activity (OVCAR-3 [14]): 24.7% | Activity (OVCAR-3 [15]): 4.3%

COc1cc(NS(C)(=O)=O)ccc1Nc1c2ccccc2nc2ccccc12 [AMSACRINE]
Activity (OVCAR-3 [16]): 41.3% | Activity (OVCAR-3 [17]): 44.7% | Activity (OVCAR-3 [18]): 1.8% | Activity (OVCAR-3 [19]): 12.7%
